From ChEMBL document CHEMBL1142346, “Quantitative structural-activity relationship (QSAR) study for fungicidal activities of thiazoline derivatives against rice blast” (2008)

System: Pyricularia grisea
Assay: Antifungal activity against Magnaporthe grisea infected rice plant assessed as logarithm of fungal control value at 100 ppm after 5 days
Assay type: functional

| Structure (SMILES) | Activity |
| --- | --- |
| CC(C)Oc1ccc(/N=c2/scc(CC(=O)Nc3ccc(C(F)F)cc3)n2C)cc1 | 1.7 |
| Cn1c(CC(=O)Nc2ccc(Cl)cc2)cs/c1=N\c1ccc(Oc2ccccc2)cc1 | 1.92 |
| COc1ccc(NC(=O)Cc2cs/c(=N\c3ccc(C(F)(F)F)cc3)n2C)cc1 | 1.99 |
| Cn1c(CC(=O)Nc2ccc(Cl)cc2)cs/c1=N\c1ccc(F)c(Cl)c1 | 1.98 |
| CCOc1ccc(NC(=O)Cc2cs/c(=N\c3ccc(F)c(Cl)c3)n2C)cc1 | 1.94 |
| COc1ccc(NC(=O)Cc2cs/c(=N\c3cccc([N+](=O)[O-])c3)n2C)cc1 | 1.99 |
| Cn1c(CC(=O)Nc2ccc(OC(F)(F)F)cc2)cs/c1=N\c1cccc(C(F)(F)F)c1 | 1.7 |
| Cn1c(CC(=O)Nc2ccc(Br)cc2)cs/c1=N\c1cccc(F)c1 | 1.9 |
| CCc1ccc(NC(=O)Cc2cs/c(=N\c3ccc(Br)cc3C)n2C)cc1 | 1.98 |
| COc1ccc(/N=c2\scc(CC(=O)Nc3ccc(C(F)F)cc3)n2C)cc1 | 1.4 |
| Cc1ccc(NC(=O)Cc2cs/c(=N\c3ccccc3F)n2C)cc1 | 1.94 |
| CCCCc1ccc(NC(=O)Cc2cs/c(=N\c3cccc(F)c3)n2C)cc1 | 1 |
| Cn1c(CC(=O)Nc2ccc(OC(F)(F)F)cc2)cs/c1=N\c1cccc(Br)c1 | 1.7 |
| CCc1ccc(NC(=O)Cc2cs/c(=N\c3cccc(Cl)c3C)n2C)cc1 | 1.95 |
| CCc1ccc(NC(=O)Cc2cs/c(=N\c3ccc(F)cc3Cl)n2C)cc1 | 1.98 |
| CCc1ccc(NC(=O)Cc2cs/c(=N\c3ccc(Br)cc3F)n2C)cc1 | 2 |
| CCc1ccc(NC(=O)Cc2cs/c(=N\c3ccc(C)cc3Br)n2C)cc1 | 1.94 |
| CCOc1ccc(NC(=O)Cc2cs/c(=N\c3ccc(F)cc3F)n2C)cc1 | 1.9 |
| COc1ccc(NC(=O)Cc2cs/c(=N\c3ccc(Cl)c(C(F)(F)F)c3)n2C)cc1 | 2 |
| COc1ccc(NC(=O)Cc2cs/c(=N\c3cccc(C(F)(F)F)c3)n2C)cc1 | 2 |
| COc1ccc(NC(=O)Cc2cs/c(=N\c3ccc(C)cc3C)n2C)cc1 | 1.96 |
| COc1ccc(NC(=O)Cc2cs/c(=N\c3ccccc3Br)n2C)cc1 | 1.92 |
| COc1ccc(NC(=O)Cc2cs/c(=N\c3ccccc3C(C)C)n2C)cc1 | 1.9 |
| CCc1ccc(NC(=O)Cc2cs/c(=N\c3ccc(F)c([N+](=O)[O-])c3)n2C)cc1 | 1.98 |

| Structure (SMILES) | Activity |
| --- | --- |
| COc1ccc(NC(=O)Cc2cs/c(=N\c3ccc(Cl)cc3F)n2C)cc1 | 1.97 |
| COc1ccc(NC(=O)Cc2cs/c(=N\c3ccc(F)cc3F)n2C)cc1 | 1.97 |
| CCCCc1ccc(/N=c2\scc(CC(=O)Nc3ccc(Cl)cc3)n2C)cc1 | 1.97 |
| CCc1ccc(NC(=O)Cc2cs/c(=N\c3cccc([N+](=O)[O-])c3)n2C)cc1 | 1.99 |
| Cn1c(CC(=O)Nc2ccc([N+](=O)[O-])cc2)cs/c1=N\c1ccc(F)cc1F | 1.23 |
| Cn1c(CC(=O)Nc2ccc(Oc3ccccc3)cc2)cs/c1=N\c1ccc(F)cc1F | 1.23 |
| COc1ccccc1/N=c1\scc(CC(=O)Nc2ccc(OC(F)(F)F)cc2)n1C | 0.7 |
| Cc1ccc(/N=c2\scc(CC(=O)Nc3ccc(OC(F)(F)F)cc3)n2C)c(C)c1 | 1.23 |
| Cn1c(CC(=O)Nc2ccc(C#N)cc2)cs/c1=N\c1ccc(F)cc1F | 1.23 |
| CCc1ccc(NC(=O)Cc2cs/c(=N\c3ccccc3F)n2C)cc1 | 1.99 |
| Cn1c(CC(=O)Nc2ccc(C(F)F)cc2)cs/c1=N\c1ccc(Br)cc1 | 1.4 |
| Cn1c(CC(=O)Nc2ccc(Br)cc2)cs/c1=N\c1cccc(Br)c1 | 1.99 |
| CCOc1ccc(NC(=O)Cc2cs/c(=N\c3cccc(Br)c3)n2C)cc1 | 1.91 |
| Cn1c(CC(=O)Nc2ccc([N+](=O)[O-])cc2)cs/c1=N/c1ccc(C#N)cc1 | 0.7 |
| Cc1ccc(NC(=O)Cc2cs/c(=N/c3ccc(F)cc3)n2C)cc1 | 1.96 |
| CCc1ccc(NC(=O)Cc2cs/c(=N\c3ccc(Cl)cc3Cl)n2C)cc1 | 1.96 |
| COc1ccc(NC(=O)Cc2cs/c(=N\c3ccc(C)c(F)c3)n2C)cc1 | 1.98 |
| COc1ccc(NC(=O)Cc2cs/c(=N\c3ccc(OC)c(Cl)c3)n2C)cc1 | 1.98 |
| CCc1ccc(NC(=O)Cc2cs/c(=N\c3ccc(OC)cc3C)n2C)cc1 | 2 |
| Cc1ccc(NC(=O)Cc2cs/c(=N\c3ccc(F)cc3F)n2C)cc1 | 1.99 |
| COc1ccc(NC(=O)Cc2cs/c(=N\c3ccc(Cl)c(Cl)c3)n2C)cc1 | 1.98 |
| Cn1c(CC(=O)Nc2ccc(Cl)cc2)cs/c1=N\c1ccc(OC(F)(F)F)cc1 | 1.82 |
| CCc1ccc(NC(=O)Cc2cs/c(=N\c3ccc(Cl)cc3F)n2C)cc1 | 1.99 |
| Cn1c(CC(=O)Nc2ccc(C(F)F)cc2)cs/c1=N\c1ccc(Cl)cc1 | 1.52 |

| Structure (SMILES) | Activity |
| --- | --- |
| COc1ccc(NC(=O)Cc2cs/c(=N\c3cccc(C)c3)n2C)cc1 | 1.98 |
| COc1ccc(NC(=O)Cc2cs/c(=N\c3ccccc3F)n2C)cc1 | 1.99 |
| Cn1c(CC(=O)Nc2ccc([N+](=O)[O-])cc2)cs/c1=N\c1cccc(F)c1 | 1.23 |
| Cn1c(CC(=O)Nc2ccc(OC(F)(F)F)cc2)cs/c1=N\c1cccc(F)c1 | 1.62 |
| COc1ccc(NC(=O)Cc2cs/c(=N\c3ccc(F)c(Cl)c3)n2C)cc1 | 1.98 |
| CCc1ccc(NC(=O)Cc2cs/c(=N\c3ccc([N+](=O)[O-])cc3OC)n2C)cc1 | 1.81 |
| CCc1ccc(/N=c2\scc(CC(=O)Nc3ccc(OC)cc3)n2C)cc1 | 1.98 |
| CCc1ccc(NC(=O)Cc2cs/c(=N\c3ccc(Br)cc3)n2C)cc1 | 1.98 |
| Cn1c(CC(=O)Nc2ccc(Cl)cc2)cs/c1=N\c1cccc(Br)c1 | 1.98 |
| Cn1c(CC(=O)Nc2ccc(Oc3ccccc3)cc2)cs/c1=N\c1cccc(F)c1 | 1.23 |
| COc1ccc(NC(=O)Cc2cs/c(=N\c3cccc(Br)c3)n2C)cc1 | 1.99 |
| COc1cccc(/N=c2\scc(CC(=O)Nc3ccc(Cl)cc3)n2C)c1 | 1.76 |
| COc1ccc(NC(=O)Cc2cs/c(=N\c3ccccc3Cl)n2C)cc1 | 1.98 |
| Cn1c(CC(=O)Nc2ccc(Cl)cc2)cs/c1=N\c1cccc(F)c1 | 1.96 |
| CCc1ccc(NC(=O)Cc2cs/c(=N\c3ccc(F)c(Cl)c3)n2C)cc1 | 1.98 |
| Cn1c(CC(=O)Nc2ccc(Cl)cc2)cs/c1=N\c1ccc(-c2ccccc2)cc1 | 1.98 |
| CCc1ccc(NC(=O)Cc2cs/c(=N\c3ccc(C)cc3Cl)n2C)cc1 | 2 |
| CCCCc1ccc(NC(=O)Cc2cs/c(=N\c3ccc(F)c(Cl)c3)n2C)cc1 | 1.3 |
| Cn1c(CC(=O)Nc2ccc(OC(F)(F)F)cc2)cs/c1=N\c1ccc(F)cc1 | 0.9 |
| Cn1c(CC(=O)Nc2ccc(Oc3ccccc3)cc2)cs/c1=N\c1cccc(Br)c1 | 0.9 |
| CCc1ccc(NC(=O)Cc2cs/c(=N\c3ccc(C#N)c(Cl)c3)n2C)cc1 | 1.98 |
| CCc1ccc(NC(=O)Cc2cs/c(=N\c3ccc(Br)c(C)c3)n2C)cc1 | 1.98 |
| CCCCOc1ccc(NC(=O)Cc2cs/c(=N\c3cccc(F)c3)n2C)cc1 | 1 |
| COc1ccc(NC(=O)Cc2cs/c(=N\c3cccc(F)c3)n2C)cc1 | 1.97 |
